This is an account of results in US20150374861A1, “KIT FOR TUMOR IMAGING” (THOMAS JEFFERSON UNVERSITY, priority 2013, published 2015).

Where two headings read alike, the source gives them in different places.

For data set [1] the following is noted: literature, Ga-67 Citrate 10 mCi, Cu-64 ATSM 25 mCi, cited from earlier work; for Effective Dose: FDG-PET/CT F-18 10 mCi, Sestamibi Tc-99m 30 mCi, FDG-PET/PM w/o CT F-18 10 mCi.
Data set [2] relates to primary tumor site and metastatic lymph nodes. Briefly: Whole body PET/CT imaging of breast cancer patients. Type of data set: in vivo, human. The settings on record: six PET/CT patients: six primary lesions, four involved lymph nodes. The procedure: Caucasian, Hispanic, African American or Asian non-pregnant women, eighteen years of age or older, with newly diagnosed, histologically proven BC were enrolled. Image guided percutaneous biopsy was performed two to six weeks prior to this imaging procedure. Each patient signed the informed consent form. For this feasibility study, a biostatistician determined that six patients be studied with PET and thirteen with PEM. This determination was based on the assumption that Cu-64-TP3805 will detect 80% of the lesions and there will be 87% power to conclude the use of this agent to diagnosis BC.
Each patient fasted for six hours prior to F-18-FDG injection. Before F-18-FDG injection, blood sugar was monitored. Patients with sugar levels below 250 mg/DL were enrolled. […]
For Cu-64-TP3805 imaging, patients neither fasted nor were blood sugar levels determined. […]
All images were read by two board certified nuclear medicine physicians and a board certified breast imaging physician. […] For six patients with PET/CT, standardized uptake values (SUV) were calculated for the primary tumor site and metastatic lymph nodes, and compared for the respective radiotracers. Metabolic tumor volume was calculated using 50% isocontour geometry method for comparison, as it is relatively a better parameter, as compared to SUV.

Take `O=C([O-])CC(O)(CC(=O)[O-])C(=O)[O-].[Ga+3]` [Ga-67 Citrate]: in data set [1], the “Effective Dose” value is given as 39 mSv and the “Liver Dose” value is listed as 69 mSv.

Regarding `CNC1=NN=C(C)C(C)=NN=C(NC)[S][64Cu][S]1` [Cu-64 ATSM], in data set [1], the “Effective Dose” value is reported as 33.3 mSv and the “Liver Dose” value is listed as 361 mSv.

As to `OC[C@H]1O[C@@H](O)[C@H]([18F])[C@@H](O)[C@@H]1O` [F-18-FDG], the detection of lesions result in data set [2] is “ten lesions detected”. The “Effective Dose” value in data set [1] (listed as FDG-PET/CT) is listed as 31.9 mSv; in data set [1] (listed as FDG-PET/PM w/o CT), 2.8 mSv.
